Measurements as given in ChEMBL document CHEMBL1153261, “Retro-Inverso Tripeptide Renin Inhibitors” (Bioorg Med Chem Lett, 1992).
Square brackets hold non-standard residues; d marks the D form. Peptide text beside a SMILES is read from it. * marks the point of attachment. Leu(ol) = CC(C)C[C@H](N)CO; Boc = CC(C)(C)OC(=O)*

What follows are molecules tested against T1, Renin (Homo sapiens, UniProt P00797) (assay: Compound was evaluated for inhibitory activity against renin). Conditions: read-out: I50.
T1 sequence (P00797 whole entry): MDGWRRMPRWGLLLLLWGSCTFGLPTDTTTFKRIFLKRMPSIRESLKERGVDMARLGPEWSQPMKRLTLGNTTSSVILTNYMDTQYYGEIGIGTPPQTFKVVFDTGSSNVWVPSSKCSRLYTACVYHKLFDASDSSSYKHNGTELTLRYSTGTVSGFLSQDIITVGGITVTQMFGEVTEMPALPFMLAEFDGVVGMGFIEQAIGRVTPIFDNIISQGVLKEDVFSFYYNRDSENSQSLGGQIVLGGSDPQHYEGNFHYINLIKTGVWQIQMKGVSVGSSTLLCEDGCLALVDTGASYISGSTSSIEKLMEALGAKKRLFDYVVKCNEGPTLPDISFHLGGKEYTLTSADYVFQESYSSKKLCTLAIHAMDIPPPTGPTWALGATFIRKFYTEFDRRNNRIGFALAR

| IC50 [µM] | SMILES |
| --- | --- |
| 80 | CC(C)C[C@H](CO)C(=O)N[C@H](Cc1c[nH]cn1)C(=O)N[C@H](Cc1ccccc1)C(=O)NCC(C)(C)C |
| 20 | CC(C)C[C@@H](CO)C(=O)N[C@H](Cc1c[nH]cn1)C(=O)N[C@H](Cc1ccccc1)C(=O)NCC(C)(C)C |
| 16 | CC(C)C[C@@H](CO)NC(=O)[C@H](Cc1cnc[nH]1)NC(=O)[C@H](Cc1ccccc1)NC(=O)OC(C)(C)C (Boc-Phe-His-[Leu(ol)]) |
| 1200 | CC(C)C[C@@H](CO)NC(=O)[C@H](Cc1c[nH]cn1)C(=O)N[C@H](Cc1ccccc1)C(=O)NCC(C)(C)C |
